Values quoted from earlier work in patent publication US20140271529A1, “ANTIFUNGAL COMPOSITIONS FOR THE TREATMENT OF SECONDARY SKIN AND NAIL INFECTIONS” (ALC Therapeutics, LLC, priority 2013, published 2014).

What was measured:
[1] = 14C-labelled griseofulvin dissolved in the solvent; human skin in vitro
[2] = human, in vivo

Compound | ratios of penetration of griseofulvin in the various solvents [1] | acute paronychia, patients affected [2]
C[S+](C)[O-] [DMSO, dimethylsulfoxide] | 60 | –
CCO [alcohol] | 3 | –
c1ccccc1 [benzene] | 1 | –
CN(C)C=O [dimethylformamide] | 7 | –
panitumumab | – | ≤ 45%
